Drawing on article PMC9706657 (2022), this text covers Kd for three compounds.

What all share (experiment): ITC
Holding throughout (settings): Na+ 100 mM (NaCl), Mg2+ 5 mM (MgCl2); 5 mM MES, pH 5.5; aptamer on Au nanoparticle (20 µM aptananozyme in cell)

Assay [1] deals with aptananozyme IV ((4)-modified pA-AuNPs) (DNA, aptamer) GTAACAACAGTCAAAAAAAAAAAAAAAAAAAAGACTGTTGTTACTGTATGTACGACGCCAGTTTGAAGGTTCGTTCGCAGGTGTGGAGTGACGTCG
For assay [2], the system named is aptananozyme II ((2)-modified pA-AuNPs) (DNA, aptamer) GTAACAACAGTCAAAAAAAAAAAAAAAAAAAAGACTGTTGTTACCGACGCCAGTTTGAAGGTTCGTTCGCAGGTGTGGAGTGACGTCG
The test system of assay [3] is aptananozyme I ((1)-modified pA-AuNPs) (DNA, aptamer) CGACGCCAGTTTGAAGGTTCGTTCGCAGGTGTGGAGTGACGTCGGTAACAACAGTCAAAAAAAAAAAAAAAAAAAAGACTGTTGTTAC
Assay [4] relates to aptananozyme V ((5)-modified pA-AuNPs) (DNA, aptamer) GTAACAACAGTCAAAAAAAAAAAAAAAAAAAAGACTGTTGTTACTGTATGTATGTACGACGCCAGTTTGAAGGTTCGTTCGCAGGTGTGGAGTGACGTCG
Assay [5] has as its system aptananozyme III ((3)-modified pA-AuNPs) (DNA, aptamer) GTAACAACAGTCAAAAAAAAAAAAAAAAAAAAGACTGTTGTTACTGTACGACGCCAGTTTGAAGGTTCGTTCGCAGGTGTGGAGTGACGTCG

SMILES strings stand for the structures.

`N[C@H](Cc1ccc(O)c(O)c1)C(=O)O` returned a Kd in assay [1] of 11300 nM.
With `NCCc1ccc(O)c(O)c1`, the Kd in assay [2] was found to be 1200 ± 60 nM; in assay [3], 1650 ± 30 nM; in assay [4], 930 ± 50 nM; in assay [5] it was 950 ± 40 nM; in assay [1] it was 760 ± 30 nM.
As for `N[C@@H](Cc1ccc(O)c(O)c1)C(=O)O`, the Kd in assay [1] came to 4200 nM.
